Experimental data as given in patent US7456292B2, “Hydroxamic acid-containing amino acid derivatives” (Bexel Pharmaceuticals, Inc., priority 2005, dated 2008).
Where two headings read alike, the source gives them in different places.

What was measured:
IL-6 [1] = assay: LPS induced IL-6 in hPBMC; format: cell-based; details: Homo sapiens, LPS 1 μg/mL 24 hours
Experimental: (§1) Human PBMC monocyte cells were cultured and incubated with compounds at different concentrations. Cells were then challenged with lipopolysaccharides (LPS) at a concentration of (1 μg/mL) for 24 hours. Cell supernatants were then analyzed for the presence of TNF-α, IL-6 and IL-1β cytokines by antibody directed enzyme-linked immunoassay. Dexamethasone was used as a positive control in the experiments.

MMP-9 = molecular target: T1, MMP-9 (Homo sapiens, UniProt P14780); assay: MMP-9 enzyme inhibition; format: biochemical
T1 construct: purchased Calbiochem PF024-5UG
Experimental: The enzyme MMP-9 (gelatinase B; EC 3.4.24.35, human recombinant, Calbiochem Cat. PF024-5UG) is used. MMP-9 is first activated with APMA for 60 minutes at 37° C. Test compound and/or vehicle is then preincubated for 60 minutes at 37° C. with the active enzyme (11 nM) in a reaction mixture containing 50 mM MOPS (pH 7.2), 10 mM CaCl2 and 10 μM ZnCl2. The reaction is initiated by addition of 4 μM Mca-Pro-Leu-Gly-Leu-Dpa-Ala-Arg-NH2 (SEQ. ID NO. 1) and incubated for 120 minutes at 37° C. Enzyme activity is determined spectrofluorometrically by measuring the formation of fluorescent Mca-Pro-Leu-Gly (SEQ. ID NO. 2). Compounds are screened at 10 μM.

IL-1β = assay: LPS induced IL-1β in hPBMC; format: cell-based; details: Homo sapiens, LPS 1 μg/mL 24 hours
Experimental: as §1

IL-12 = IL-12 secretion following LPS stimulation of mouse spleenic macrophages; format: cell-based
Excerpt: Compound 6 of this class inhibited IL-12 production in mouse splenic macrophages stimulated with LPS for 72 hrs.

nitric oxide = assay: Nitric oxide secretion following LPS stimulation of mouse spleenic macrophages; format: cell-based; details: Macrophage, LPS stimulated mouse spleenic macrophages, read-out: Mice Spleen Cells (% Inhibition) NO
TNF-α [2] = assay: LPS induced TNF-α in hPBMC; format: cell-based; details: Homo sapiens; hPBMC, 10 μM, LPS 1 μg/mL 24 hours; * average of two experiments; read-out: Inhibition (%) TNF-α
Experimental: as §1

IL-6 [3] = assay: LPS induced sepsis model in mice, serum IL-6; format: in vivo; details: Mus musculus; SW mice, oral 50 mg/kg body weight one hour before LPS, serum after 90 min
Experimental: (§2) SW mice were orally treated with vehicle, dexamethasone (5 mg/kg) and compounds at a dose of 50 mg/kg body weight one hour before LPS injection (10 μg/mouse, ip) and blood was collected after 90 min and measured serum TNF-α and IL-6 levels by ELISA.

TNF-α [4] = assay: TNF-α secretion following LPS stimulation of mouse spleenic macrophages; format: cell-based; details: Macrophage, LPS stimulated mouse spleenic macrophages, read-out: Mice Spleen Cells (% Inhibition) TNF-α
[5] = tested on: Collagen Induced Arthritis Model; assay: Collagen induced arthritis model; format: in vivo; details: male DBA/1 Lac mice, oral 50 mg/kg daily
Experimental: Arthritis induced in male DBA/1 Lac mice with bovine collagen (100 μg/mouse). Booster dose was given on Day 21 and started treatment when clinical score was about 2. […] Dexamethasone was kept as positive control. Severity of each paw score was defined from 0=no erythma to 4=severe arthritis for the swollen paws with a maximum possible score of 16 for 4 paws (4×4) in one animal.

MMP-1 = molecular target: T2, MMP-1 (Homo sapiens, UniProt P03956); assay: MMP-1 enzyme inhibition; format: biochemical
T2 construct: purchased Calbiochem 444208; host or cells: human rheumatoid synovial fibroblast (natural source)
T2 sequence (P03956 100-469): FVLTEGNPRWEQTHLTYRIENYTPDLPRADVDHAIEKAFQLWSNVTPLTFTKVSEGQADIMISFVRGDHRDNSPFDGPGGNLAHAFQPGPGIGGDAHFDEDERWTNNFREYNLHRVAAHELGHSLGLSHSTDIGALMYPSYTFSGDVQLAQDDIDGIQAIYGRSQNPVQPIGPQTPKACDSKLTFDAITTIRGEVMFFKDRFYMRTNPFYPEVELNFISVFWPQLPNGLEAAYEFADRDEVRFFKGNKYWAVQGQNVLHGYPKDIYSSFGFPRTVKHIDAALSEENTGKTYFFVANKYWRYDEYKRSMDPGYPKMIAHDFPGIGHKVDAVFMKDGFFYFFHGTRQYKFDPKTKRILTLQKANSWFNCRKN
Experimental: The enzyme MMP-1 (interstitial collagenase; EC 3.4.24.7, human rheumatoid synovial fibroblast, Calbiochem Cat. 444208) is used. MMP-1 is first activated with APMA for 60 minutes at 37° C. Test compound and/or vehicle is then preincubated for 60 minutes at 37° C. with the active enzyme ([…]) in a reaction mixture containing 50 mM MOPS (pH 7.2), 10 mM CaCl2 and 10 μM ZnCl2. The reaction is initiated by addition of Mca-Pro-Leu-Gly-Leu-Dpa-Ala-Arg-NH2 (SEQ. ID NO. 1) (4 μM) and incubated for 120 minutes at 37° C. The N-terminal protecting group Mca is 7-methoxycoumarin-4-yl acetyl. The amino acid Dpa is N^3-(2,4-dinitrophenyl)-L-diaminopropanoyl. Enzyme activity is determined spectrofluorometrically by measuring the formation of fluorescent Mca-Pro-Leu-Gly (SEQ. ID NO. 2). Compounds are screened at 10 μM.

TNF-α [6] = assay: LPS induced TNF-α in THP-1 monocytic cells; format: cell-based; details: Homo sapiens, LPS 1 μg/mL 24 hours
Experimental: as §1, with “THP-1” for “PBMC”, “TNF-α” for “TNF-α, IL-6 and IL-1β”, “immunoassay from R & D System, Minneapolis, USA.” for “immunoassay. Dexamethasone was used as a positive control in the experiments.”

TNF-α [7] = assay: LPS induced sepsis model in mice, serum TNF-α; format: in vivo; details: Mus musculus; SW mice, oral 50 mg/kg body weight one hour before LPS, serum after 90 min
Experimental: as §2

T cell proliferation = assay: Inhibition of T cell proliferation; format: cell-based, mice; details: Mus musculus, T-cell, 10 μM
Experimental: SJL mice were immunized with keyhole limpet hemocyanin (KLH) in complete Freund's adjuvant (CFA). 12 days later regional lymph nodes were isolated and a proliferative response to KLH in the presence or absence of drug was performed (in presence of 3H thymidine). The results are expressed at Stimulation index (CPM+antigen/CPM no antigen). Similarly, mitogen induced concanavalin A (CON-A), IL-4, IL-2 induced T cell proliferation was measured in presence of compounds are shown in Table VI.

Human recombinant TACE = molecular target: T3, Human recombinant TACE (Homo sapiens, UniProt P78536); assay: TACE enzyme inhibition; format: biochemical
T3 construct: purchased R&D System 930-ADB; host or cells: Sf21 cells
Excerpt: Tumor necrosis factor-α converting enzyme (TACE/ADAM-17) is responsible for the release of TNF-α, a potent proinflammatory cytokine associated with many chronic debilitating diseases such as rheumatoid arthritis and multiple sclerosis. TNF-α also induces angiogenesis, promotes fibroblast proliferation and can combine with receptors on selected tumor cells to induce cell lysis. TACE is also implicated in amyloid precursor protein secretion. Human recombinant TACE expressed in Sf21 cells (R&D System, 930-ADB) is used. Test compound and/or vehicle is incubated with the enzyme (25 ng/ml) and 10 μM Mca-P-L-A-Q-A-V-Dpa-R-S-S-S-R-NH2 (SEQ. ID NO. 3) in Modified Tris-buffer pH 9.0 for 30 minutes at 25° C. Enzyme activity is determined spectrofluorimetrically by measuring the formation of fluorescent Mca-P-L-A-Q-A-NH2 (SEQ. ID NO. 4). Compounds are screened at 10 μM.

[8] = tested on: Phosphodiesterase type 4 (PDE4); assay: PDE-4 enzyme inhibition; format: biochemical, human
[9] = molecular target: T4, Phosphodiesterase type-3 (PDE3) (Homo sapiens, UniProt Q14432); assay: PDE-3 enzyme inhibition; format: biochemical
T4 construct: from tissue; host or cells: human platelets
T4 sequence (Q14432 whole entry): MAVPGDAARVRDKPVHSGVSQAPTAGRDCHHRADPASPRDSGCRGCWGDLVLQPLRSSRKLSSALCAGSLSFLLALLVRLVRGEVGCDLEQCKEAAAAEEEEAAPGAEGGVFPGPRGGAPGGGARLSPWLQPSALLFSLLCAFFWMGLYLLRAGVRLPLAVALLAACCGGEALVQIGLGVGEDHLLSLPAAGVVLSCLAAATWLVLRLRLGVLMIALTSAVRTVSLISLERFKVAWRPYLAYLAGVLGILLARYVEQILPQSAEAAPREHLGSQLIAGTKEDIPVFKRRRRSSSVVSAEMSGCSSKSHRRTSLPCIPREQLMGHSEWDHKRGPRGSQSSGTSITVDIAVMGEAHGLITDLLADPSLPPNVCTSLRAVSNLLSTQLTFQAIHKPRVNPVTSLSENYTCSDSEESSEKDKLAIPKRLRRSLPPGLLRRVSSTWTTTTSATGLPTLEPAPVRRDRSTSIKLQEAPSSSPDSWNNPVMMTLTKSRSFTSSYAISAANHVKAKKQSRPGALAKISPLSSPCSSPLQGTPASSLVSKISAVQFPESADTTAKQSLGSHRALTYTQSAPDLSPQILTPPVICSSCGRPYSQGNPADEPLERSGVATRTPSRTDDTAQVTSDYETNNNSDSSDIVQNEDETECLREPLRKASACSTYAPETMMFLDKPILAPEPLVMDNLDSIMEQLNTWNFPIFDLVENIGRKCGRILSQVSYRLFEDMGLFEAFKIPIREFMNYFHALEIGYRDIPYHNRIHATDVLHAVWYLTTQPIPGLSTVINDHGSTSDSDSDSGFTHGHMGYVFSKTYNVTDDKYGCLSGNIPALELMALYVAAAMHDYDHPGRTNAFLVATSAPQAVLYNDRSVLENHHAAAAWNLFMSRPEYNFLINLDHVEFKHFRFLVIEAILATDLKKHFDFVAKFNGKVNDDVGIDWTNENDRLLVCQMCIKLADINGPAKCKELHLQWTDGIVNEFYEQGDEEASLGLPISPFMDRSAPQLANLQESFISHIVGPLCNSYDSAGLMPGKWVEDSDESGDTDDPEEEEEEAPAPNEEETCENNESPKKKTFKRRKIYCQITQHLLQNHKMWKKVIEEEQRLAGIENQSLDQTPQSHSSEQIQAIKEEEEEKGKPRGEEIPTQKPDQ

T1 sequence (P14780 107-707 limits assumed): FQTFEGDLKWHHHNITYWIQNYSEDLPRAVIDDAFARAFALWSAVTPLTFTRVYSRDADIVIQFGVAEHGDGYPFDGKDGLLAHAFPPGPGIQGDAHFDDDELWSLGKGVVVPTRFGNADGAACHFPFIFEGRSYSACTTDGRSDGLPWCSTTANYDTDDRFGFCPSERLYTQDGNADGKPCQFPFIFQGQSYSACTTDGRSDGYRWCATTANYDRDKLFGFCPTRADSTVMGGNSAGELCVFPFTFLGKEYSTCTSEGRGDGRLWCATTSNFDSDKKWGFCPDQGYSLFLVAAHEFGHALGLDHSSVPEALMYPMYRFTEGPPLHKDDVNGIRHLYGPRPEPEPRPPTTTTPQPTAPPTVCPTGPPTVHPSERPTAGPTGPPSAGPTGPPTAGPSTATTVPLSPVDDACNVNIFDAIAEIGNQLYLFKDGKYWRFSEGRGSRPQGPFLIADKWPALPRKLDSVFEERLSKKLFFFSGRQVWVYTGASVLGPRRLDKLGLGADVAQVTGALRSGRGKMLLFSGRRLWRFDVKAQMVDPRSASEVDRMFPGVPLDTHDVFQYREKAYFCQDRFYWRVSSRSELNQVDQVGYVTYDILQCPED
T3 sequence (P78536 215-671 limits assumed): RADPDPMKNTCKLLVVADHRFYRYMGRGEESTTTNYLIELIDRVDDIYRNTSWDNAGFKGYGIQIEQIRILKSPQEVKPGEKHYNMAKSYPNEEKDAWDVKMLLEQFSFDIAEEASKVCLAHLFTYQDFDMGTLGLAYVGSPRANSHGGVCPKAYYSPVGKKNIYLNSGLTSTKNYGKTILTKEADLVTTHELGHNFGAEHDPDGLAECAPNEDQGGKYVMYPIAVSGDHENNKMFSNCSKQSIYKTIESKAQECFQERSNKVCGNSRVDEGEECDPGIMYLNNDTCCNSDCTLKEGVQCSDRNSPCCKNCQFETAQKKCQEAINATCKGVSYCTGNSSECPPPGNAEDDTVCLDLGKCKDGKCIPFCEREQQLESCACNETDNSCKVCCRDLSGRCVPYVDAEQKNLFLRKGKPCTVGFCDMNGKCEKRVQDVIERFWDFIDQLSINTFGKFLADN

Compound: Cl.NC(Cc1ccc(Oc2ccc(C(=O)NO)cc2)cc1)C(=O)OCc1ccccc1 (stereo not drawn) [Compound 6, 2-amino-3-[4-(4-hydroxycarbamoylphenoxy)-phenyl]-propionic acid benzyl ester hydrochloric acid salt]
- inhibition at 10 µM (IL-6 [1]): 97%
- inhibition at 10 µM (MMP-9): < 0%
- inhibition at 10 µM (IL-1β): 73%
- inhibition at 10 µM (IL-12; Macrophage, LPS stimulated mouse spleenic macrophages, 10 μM, read-out: Mice Spleen Cells (% Inhibition) IL-12): 80%
- IL-12 production (IL-12; mouse splenic macrophages stimulated with LPS for 72 hrs): strongly inhibited IL-12 production
- inhibition at 10 µM (nitric oxide): 20%
- inhibition at 10 µM (TNF-α [2]): 69.6%
- inhibition at 50 mg/kg (IL-6 [3]): 30%
- inhibition at 10 µM (TNF-α [4]): 20%
- arthritic scores [5]: significantly improved the arthritic scores
- inhibition at 10 µM (MMP-1): 12%
- inhibition at 10 µM (TNF-α [6]): 92%
- inhibition at 50 mg/kg (TNF-α [7]): 50%
- inhibition at 10 µM (T cell proliferation; Anti CD3 Abs induced, read-out: Inhibition of T cell proliferation, Anti CD3 Abs): < 80%
- inhibition at 10 µM (T cell proliferation; CON A induced, read-out: Inhibition of T cell proliferation, CON A): 61 to 80%
- inhibition at 10 µM (T cell proliferation; IL-2 induced, read-out: Inhibition of T cell proliferation, IL-2): 61 to 80%
- inhibition at 10 µM (T cell proliferation; IL-4 induced, read-out: Inhibition of T cell proliferation, IL-4): 61 to 80%
- inhibition at 10 µM (T cell proliferation; KLH specific, lymph nodes of KLH immunized SJL mice, read-out: Inhibition of T cell proliferation, KLH Specific): < 80%
- inhibition at 10 µM (Human recombinant TACE): 15%
- Inhibition at 10 μM (%) PDE-4 [8]: 4%
- inhibition at 10 µM [9]: 3%
